Experimental data as given in US11198687B2, “Heteroaryl allosteric modulators of nicotinic acetylcholine receptors” (Merck Sharp & Dohme Corp., priority 2017, dated 2021).
Read-outs that look alike come from different tables or passages of the source.

Target: human α7 nAChR (Homo sapiens, UniProt P36544)
Assay: Automated patch-clamp electrophysiology functional assay (Assay A)
Format: cell-based
Details: IonFlux HT whole-cell population patch, HEK cell line stably expressing human RIC-3 and human α7, 40 μM acetylcholine
Method: The α7 nAChR positive allosteric modulator (PAM) activity of the present compounds may be tested using assays known in the art. […] The assay was performed using the IonFlux HT in a whole-cell, population patch configuration. See Golden et al. Assay Drug Dev. Technol. (2011) 9:608-619. The compounds were assessed for their ability to modulate the function of the human α7 nAChR stably expressed in a HEK cell line both in the presence, and in the absence of the natural α7 agonist acetylcholine. By performing a series of such measurements at different concentrations, the effective concentration of the α7 nAChR PAMs (EC50) was determined. See Spencer et al. Assay Drug Dev. Technol. (2012) 10:313-324.
Direct activation of α7 (agonism), and potentiation of acetylcholine-evoked α7 currents was determined as follows:
Automated Patch-Clamp Electrophysiology Functional Assay (Assay A)
Automated patch-clamp electrophysiology was performed using the IonFlux HT (Fluxion Biosciences Inc., San Francisco, Calif.) in the whole-cell, population patch configuration. Test compounds were assessed for their ability to modulate the function of the α7 nicotinic acetylcholine receptor both in the presence, and in the absence of the natural α7 agonist acetylcholine. A HEK cell line stably expressing both human RIC-3 and human α7 (PrecisION hnAChR α7/RIC-3, Eurofins Pharma, St. Charles, Mo.) was cultured in 175 cm^2 triple-layer tissue culture flasks to no more than 90% confluency in DMEM/F-12 growth media supplemented with 10% heat-inactivated fetal bovine serum, 1% non-essential amino acids, 0.625 μg/mL Puromycin, and 400 μg/mL Geneticin. Immediately prior to assay, cells were detached by first aspirating growth media, rinsing with Dulbecco's phosphate buffered saline, and then adding 10 mL of Accutase (Innovative Cell Technologies, San Diego, Calif.) to the flask and then incubating at 37° C. for 5 minutes. Detached cells were then recovered by the addition of 40 mL of CHO-serum-free media supplemented with 25 mM HEPES, and rocked gently in a 50 mL conical tube for 20 minutes prior to patch-clamp assay. […] The cell suspension was added to the cell inlet wells on an IonFlux HT population patch plate which had previously been rinsed and primed with deionized H2O. Test compounds were serially diluted in DMSO and then resuspended to the final test concentration in external recording solution, with, or without 40 μM acetylcholine added to the external recording solution; test compounds were then transferred to the lonFlux HT population patch plate. Internal recording solution (110 mM TrisPO4, 28 mM TrisBase, 0.1 mM CaCl2, 2 mM MgCl2, 11 mM EGTA, 4 mM MgATP) was added to the internal recording solution inlet wells on the IonFlux HT patch plate previously loaded with cells and test compounds, and the plate loaded into the IonFlux HT instrument. A protocol was executed on the IonFlux HT to trap the cells, break into the cells, and establish the whole-cell recording configuration; cells were voltage-clamped at a holding potential of −60 mV for the duration of the experiment, all experiments were conducted at room temperature, and the IonFlux HT injection pressure was 8 psi for solution applications. Upon establishing the whole-cell configuration, external recording solution was perfused into the recording chambers for 120 seconds and then 40 μM acetylcholine was applied for 1 second and immediately washed off with external recording solution for 60 seconds. The 40 μM acetylcholine-evoked α7 current served as the current response to which subsequent test compound effects, in the presence, or in the absence of 40 μM acetylcholine would be quantified relative to. Next, test compounds were evaluated at multiple concentrations for their ability to induce, or modulate α7 current responses; three concentrations of test compound were evaluated in ascending dose fashion per recording.

human α7 nAChR, sequence (P36544 23-502): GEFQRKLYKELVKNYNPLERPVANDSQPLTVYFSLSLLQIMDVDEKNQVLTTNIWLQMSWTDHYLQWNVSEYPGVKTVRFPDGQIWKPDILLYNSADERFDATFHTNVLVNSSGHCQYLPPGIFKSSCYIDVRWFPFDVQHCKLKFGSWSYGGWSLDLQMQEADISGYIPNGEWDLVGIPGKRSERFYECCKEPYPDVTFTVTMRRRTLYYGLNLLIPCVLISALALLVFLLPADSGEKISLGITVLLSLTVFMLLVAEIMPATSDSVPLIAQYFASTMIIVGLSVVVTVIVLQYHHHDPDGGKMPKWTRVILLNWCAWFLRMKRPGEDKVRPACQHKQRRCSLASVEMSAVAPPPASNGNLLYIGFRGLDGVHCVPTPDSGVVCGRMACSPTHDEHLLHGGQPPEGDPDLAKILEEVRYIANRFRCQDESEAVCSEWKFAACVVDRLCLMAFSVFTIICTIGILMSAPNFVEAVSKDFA

Row | Structure (SMILES) | EC50 (read-out: α7 nAChR Potency) [nM] | EC50 (read-out: α7 nAChR EC50) [nM]
1 | CC1(C)[C@@H](c2ccc(S(N)(=O)=O)nc2)[C@@H]1c1nc(-c2ccccc2)no1 (racemic) [Example C6, 5-[trans-2,2-Dimethyl-3-(3-phenyl-1,2,4-oxadiazol-5-yl)cyclopropyl]pyridine-2-sulfonamide] | 500 to 5000 | –
2 | CC1(C)[C@H](c2ccc(S(N)(=O)=O)nc2)[C@H]1c1ncc(-c2ccccc2)o1 [Example A15, 5-[(1R,3R)-2,2-Dimethyl-3-(5-phenyl-1,3-oxazol-2-yl)cyclopropyl]pyridine-2-sulfonamide] | 500 to 5000 | 1600
3 | CC1(C)[C@@H](c2nc(C3CCC3)no2)[C@@H]1c1ncc(S(N)(=O)=O)s1 (racemic) [Example D2, 2-[trans-3-(3-Cyclobutyl-1,2,4-oxadiazol-5-yl)-2,2-dimethylcyclopropyl]-1,3-thiazole-5-sulfonamide] | 500 to 5000 | 1200
4 | NS(=O)(=O)c1ccc(C2CC2c2nc(-c3ccccc3)no2)cn1 (racemic) [Example C5, 5-[trans-2-(3-Phenyl-1,2,4-oxadiazol-5-yl)cyclopropyl]pyridine-2-sulfonamide] | 500 to 5000 | 1100
5 | CC1(C)[C@@H](c2ccc(S(N)(=O)=O)nc2)[C@@H]1c1nc2ccccc2o1 (relative stereo) [Example C7, 5-[trans-3-(1,3-Benzoxazol-2-yl)-2,2-dimethylcyclopropyl]pyridine-2-sulfonamide] | 500 to 5000 | 1600
6 | CC1(C)[C@H](c2ccc(S(N)(=O)=O)nc2)[C@H]1c1nc(-c2cncc(F)c2)no1 [Example A9, 5-{(1R,3R)-3-[3-(5-Fluoropyridin-3-yl)-1,2,4-oxadiazol-5-yl]-2,2-dimethylcyclopropyl}pyridine-2-sulfonamide] | 500 to 5000 | 5000
7 | CC1(C)[C@H](c2ccc(S(N)(=O)=O)nc2)[C@H]1c1nc(-c2cncc(C(F)(F)F)c2)no1 [Example A2, 5-[(1R,3R)-2,2-Dimethyl-3-{3-[5-(trifluoromethyl)pyridin-3-yl]-1,2,4-oxadiazol-5-yl}cyclopropyl]pyridine-2-sulfonamide] | 500 to 5000 | 1400
8 | CC1(C)[C@@H](c2ccc(S(N)(=O)=O)nc2)[C@@H]1c1nc(C2CC(F)(F)C2)no1 [Example B8, 5-{(1S,3S)-3-[3-(3,3-Difluorocyclobutyl)-1,2,4-oxadiazol-5-yl]-2,2-dimethylcyclopropyl}pyridine-2-sulfonamide] | 500 to 5000 | –
9 | CC1(C)[C@@H](c2ccc(S(N)(=O)=O)nc2)[C@@H]1c1nc(-c2ccc(F)cc2F)no1 [Example B3, 5-{(1S,3S)-3-[3-(2,4-Difluorophenyl)-1,2,4-oxadiazol-5-yl]-2,2-dimethylcyclopropyl}pyridine-2-sulfonamide] | 500 to 5000 | –
10 | CC1(C)[C@@H](c2ccc(S(N)(=O)=O)nc2)[C@@H]1c1ncc(C2CCCC2)o1 [Example B14, 5-[(1S,3S)-3-(5-Cyclopentyl-1,3-oxazol-2-yl)-2,2-dimethylcyclopropyl]pyridine-2-sulfonamide] | 500 to 5000 | 590
11 | CC1(C)[C@@H](c2nc3ccccc3o2)[C@@H]1c1ncc(S(N)(=O)=O)s1 (racemic) [Example D1, 2-[trans-3-(1,3-Benzoxazol-2-yl)-2,2-dimethylcyclopropyl]-1,3-thiazole-5-sulfonamide] | 500 to 5000 | 2000
12 | CC(C)c1noc([C@H]2[C@H](c3ccc(S(N)(=O)=O)nc3)C2(C)C)n1 [Example B13, 5-{(1S,3S)-2,2-Dimethyl-3-[3-(propan-2-yl)-1,2,4-oxadiazol-5-yl]cyclopropyl}pyridine-2-sulfonamide] | 500 to 5000 | –
13 | NS(=O)(=O)c1ccc([C@@H]2C[C@H]2c2nc(-c3cccc(F)c3)no2)cn1 (racemic) [Example C8, 5-{trans-2-[3-(3-Fluorophenyl)-1,2,4-oxadiazol-5-yl]cyclopropyl}pyridine-2-sulfonamide] | 100 to 500 | 390
14 | NS(=O)(=O)c1ccc([C@@H]2C[C@H]2c2nc(C3CCCC3)no2)cn1 (racemic) [Example C9, 5-[trans-2-(3-Cyclopentyl-1,2,4-oxadiazol-5-yl)cyclopropyl]pyridine-2-sulfonamide] | 500 to 5000 | –
15 | CC1(C)[C@@H](c2ccc(S(N)(=O)=O)cn2)[C@@H]1c1nc(-c2ccccc2)no1 (racemic) [Example G2, 6-[trans-2,2-Dimethyl-3-(3-phenyl-1,2,4-oxadiazol-5-yl)cyclopropyl]pyridine-3-sulfonamide] | 500 to 5000 | 970

Now from value to molecule:

Row | EC50 (read-out: α7 nAChR Potency) [nM] | EC50 (read-out: α7 nAChR EC50) [nM] | Structure (SMILES)
16 | 500 to 5000 | 1600 | CC(C)c1noc([C@H]2[C@H](c3ccc(S(N)(=O)=O)cn3)C2(C)C)n1 [Example F14, 6-{(1S,3S)-2,2-Dimethyl-3-[3-(propan-2-yl)-1,2,4-oxadiazol-5-yl]cyclopropyl}pyridine-3-sulfonamide]
17 | 500 to 5000 | – | CC1(C)[C@@H](c2ccc(S(N)(=O)=O)cn2)[C@@H]1c1nc(C2CCC2)no1 (racemic) [Example G4, 6-[trans-3-(3-Cyclobutyl-1,2,4-oxadiazol-5-yl)-2,2-dimethylcyclopropyl]pyridine-3-sulfonamide]
18 | 500 to 5000 | – | CC1(C)[C@H](c2ccc(S(N)(=O)=O)cn2)[C@H]1c1nc(-c2cccc(C(F)(F)F)c2)no1 [Example E6, 6-[(1R,3R)-2,2-Dimethyl-3-{3-[3-(trifluoromethyl)phenyl]-1,2,4-oxadiazol-5-yl}cyclopropyl]pyridine-3-sulfonamide]
19 | 500 to 5000 | 1300 | CC1(C)[C@H](c2ccc(S(N)(=O)=O)cn2)[C@H]1c1nc(-c2ccc(F)cc2F)no1 [Example E5, 6-{(1R,3R)-3-[3-(2,4-Difluorophenyl)-1,2,4-oxadiazol-5-yl]-2,2-dimethylcyclopropyl}pyridine-3-sulfonamide]
20 | 500 to 5000 | 3000 | NS(=O)(=O)c1ccc([C@@H]2C[C@H]2c2nc(C3CCCC3)no2)nc1 (racemic) [Example G7, 6-[trans-2-(3-Cyclopentyl-1,2,4-oxadiazol-5-yl)cyclopropyl]pyridine-3-sulfonamide]
21 | 500 to 5000 | 3600 | CC1(C)[C@@H](c2ccc(S(N)(=O)=O)cn2)[C@@H]1c1nc(C2CC(F)(F)C2)no1 (racemic) [Example G5, 6-{trans-3-[3-(3,3-Difluorocyclobutyl)-1,2,4-oxadiazol-5-yl]-2,2-dimethylcyclopropyl}pyridine-3-sulfonamide]
22 | 500 to 5000 | 4000 | CC1(C)[C@H](c2ccc(S(N)(=O)=O)cn2)[C@H]1c1nc(-c2cccc(F)c2)no1 [Example E1, 6-{(1R,3R)-3-[3-(3-Fluorophenyl)-1,2,4-oxadiazol-5-yl]-2,2-dimethylcyclopropyl}pyridine-3-sulfonamide]
23 | 500 to 5000 | – | CC1(C)[C@H](c2ccc(S(N)(=O)=O)cn2)[C@H]1c1nc(C2CCCCC2)no1 [Example E7, 6-[(1R,3R)-3-(3-Cyclohexyl-1,2,4-oxadiazol-5-yl)-2,2-dimethylcyclopropyl]pyridine-3-sulfonamide]
24 | 5000 to 50000 | 5400 | COc1ccc(Cl)cc1-c1noc([C@@H]2[C@@H](c3ccc(S(N)(=O)=O)cn3)C2(C)C)n1 [Example E4, 6-{(1R,3R)-3-[3-(5-Chloro-2-methoxyphenyl)-1,2,4-oxadiazol-5-yl]-2,2-dimethylcyclopropyl}pyridine-3-sulfonamide]
25 | 500 to 5000 | 3300 | CC1(C)[C@@H](c2ccc(S(N)(=O)=O)cn2)[C@@H]1c1nc(-c2cncc(C(F)(F)F)c2)no1 [Example F2, 6-[(1S,3S)-2,2-Dimethyl-3-{3-[5-(trifluoromethyl)pyridin-3-yl]-1,2,4-oxadiazol-5-yl}cyclopropyl]pyridine-3-sulfonamide]
